Data published in patent US20030180345A1, “Compositions and methods for inhibiting islet dysfunction and autoimmune disorders” (priority 2000, published 2003).
“Also recorded” adds a separate entry of the source.

Tests used:
fetal pancreas = test: Fetal pancreatic vascularization with taurine supplementation; format: in vivo, Wistar rats; details: LP diet + taurine in drinking water; fetal day 21.5
Description: Animals and diets were as described above in Example 1. The fetal pancreas was removed at day 21.5. Vascular density, expressed as a percent of area, and number of blood vessels per unit area were evaluated.

NOD mice [1] = test: Insulitis in NOD mice at 12 weeks after taurine in maternal drinking water (pregnancy and lactation); format: in vivo; details: for reduction of incidence of insulitis: 12 weeks of age, vs control animals
Excerpt: Pregnant NOD mice were maintained on a control diet either with or without taurine supplementation in the drinking water throughout pregnancy and lactation. Supplementation of taurine was stopped after weaning. At 12 weeks of age the animals were killed and examined for histological evidence of insulitis within the pancreatic islets. Mice which were examined and found to have evidence of insulitis, were then further scored as peri-islet (slight), less than 50% area of islet (medium) or more than 50% islet area (heavy), as indicative of the stage and/or severity of insulitis.

fetal islet cells = test: In vitro fetal islet cell proliferation (BrdU incorporation); format: cell-based, Wistar rats; details: LP islets; taurine 1.25 or 2.5 mmol/l in culture media
Description: Animals and diets were as described in Example 1. Fetuses were removed at fetal day 21.5, and fetal islet cells were isolated and treated as described in Example 1. Taurine was added to incubation medium at levels of either 0 mmol/l, 1.25 mmol/l or 2.5 mmol/l. Proliferation was evaluated using bromodeoxyuridine (BrdU) incorporation into DNA.

NOD mice [2] = test: Gestational taurine supplementation in NOD mice: diabetes onset, insulitis and endocrine pancreas development; format: in vivo
Excerpt: Pregnant NOD mice (maintained as in Example 13) were supplemented with 2.5% of taurine in drinking water during gestation. Pups were either sacrificed at 14 days of age, and pancreata were collected and fixed for histology as depicted in FIG. 16, or followed until glucosurea was apparent.

fetal islet β cells = test: SNP-induced apoptosis in cultured fetal islets (TUNEL, confocal microscopy); format: cell-based, Wistar rats; details: for in vitro apoptotic rate: absence of SNP
Description: Animals and Diets. Adult virgin female Wistar rats were caged overnight with males and copulation was verified the next morning. Animals were maintained at 25° C. with a 10 h-14 h dark-light cycle. Pregnant rats were divided into two groups and fed one of the following isocaloric diets: either a control diet (C) containing 20% protein or a low protein diet (LP) containing 8% protein. The composition of the diet was as described previously by Snoeck et al. 1990 (Biol. Neonate 57, 107-118). The diets were purchased from Hope Farms (Woerden, Holland). Animals in both the groups had free access to water at all times. At 21.5 days of gestation, females were sacrificed by decapitation and fetuses removed.
Islet culture and treatment. Fetal islets were isolated as described by Mourmeaux et al. 1985 (Molecular and Cellular Endocrinology 39:237-246). Islets were cultured in 35 mm Petri-dishes (Falcon plastics, Los Angeles, Calif.) in RPMI 1640 medium (Gibco, Grand Island, N.Y., USA) with 10% Fetal Bovine Serum and antibiotics (penicillin 200 U/ml, streptomycin 0.2 mg/ml). Petri dishes were incubated at 37° C. with 5% CO2 in air. The culture medium was changed daily after the second day. On the 5th day of culture, islets were rinsed twice with serum free DME/F12 medium (1:1, v/v, Gibco, Paisley, Scotland) and subsequently incubated for 42 hours in this medium. […]
TUNEL method for evaluating apoptosis. Apoptosis was evaluated by the TUNEL method described herein, and visualized with confocal microscopy. Cultured islets were fixed in methanol and stored at −20° C. until analysis. The tissue was then washed with phosphate buffered saline (PBS) for 3 min, and a terminal deoxynucleotidyl transferase (TdT) reaction buffer (50 μl) was added. The 50 μl of TdT solution was prepared using 10 μl of 5× concentrated buffer solution (1 mol/l potassium cacodylate; 125 mmol/l Tris-HCl, pH 6.6; 1.26 mg bovine serum albumin). Cobalt chloride (5 μl of 25 mmol/l), 0.5 μl (12.5 units) of TdT (both from Boehringer Mannheim, Germany), and 0.25 nmoles of BODIPY-FL-X-14-dUTP (Molecular Probes, Eugene, Oreg. USA) were added, along with distilled water, up to 50 μl. Islets were incubated in Petri dishes with the TdT reaction buffer for 60 min at 37° C., then rinsed twice with 15 mmol/l EDTA (pH 8.0) in PBS and once with 0.1% Triton X-100 in PBS. Then, 2 ml of PBS containing 2.5 μg/ml of propidium iodide (Molecular Probes, Eugene, Oreg. USA) was added to the dishes for 5 min. Finally, islet cells were washed with 15 mmol/l EDTA (pH 8.0). Islet cells were then double-labelled for apoptotic nuclei, showing the BODIPY-FL-dUTP label in […] and total nuclei with propidium iodide in red.
Confocal microscopy. Staining probes were visualised through a confocal laser scanning microscopy system (MRC-1024 UV; BIO-RAD, UK) equipped with Argon ion and Krypton/Argon ion lasers. BODIPY-FL was excited at 503 nm, ethidium bromide at 510 nm, propidium iodide at 536 nm and Hoechst 33342 at 346 nm. The emissions were recorded respectively at 522/32 nm, 605/32 nm and 455/30 nm. Four to six optical sections were collected at every 15 μm through the islet. The number of BODIPY-FL-positive or ethidium bromide-positive nuclei were reported and expressed as a percentage of the total number of nuclei.
Animals, diets, and fetal islet isolation procedures were conducted as described in Example 1.

fetal islets = test: Interaction of dietary and in vitro taurine on SNP- or IL1β-induced apoptosis of fetal islets; format: cell-based, Wistar rats
Description: Animals and diets were prepared as described in Example 7. Pancreases were removed and islets were isolated from late gestation fetuses at day 21.5. Neoformed fetal islets obtained after five days of culture from the four diet groups (C, C+Taurine, LP, and LP+Taurine) were compared for their susceptibility to apoptosis following exposure to SNP (100 μmol/l), or IL1β (50 U/ml), with or without in vitro taurine at either physiological (0.3 mmol/l) or supraphysiological (3.0 mmol/l) levels.

Compound: NCCS(=O)(=O)O [taurine, 2-aminoethylsulfonic acid]
- blood vessel numbers per unit area (fetal pancreas): restoring both vascularization parameters to the level of the control groups
- vascular density (percent of area) (fetal pancreas): restoring both vascularization parameters to the level of the control groups
- proportion of individual islets showing no incidence of insulitis (NOD mice [1]; female animals exhibiting insulitis, C+Taurine (65% in control diet group)): approximately 50%
- severity of insulitis when it occurs (NOD mice [1]; female mice exhibiting insulitis, 12 weeks): not lessened
- reduction of incidence of insulitis (NOD mice [1]; female mice): 80%
- reduction of incidence of insulitis (NOD mice [1]; male mice): 60%
- in vitro islet cell proliferation rate (BrdU) (fetal islet cells): increased LP islet cell proliferation rate to the levels observed in C islets having no taurine addition
- proportion of IGF-II-immunoreactive islet cells (NOD mice [2]; 14 days of age, p<0.01): greater proportion
- mean islet area (NOD mice [2]; 14 days of age, p<0.05): significantly smaller
- proportion of proliferating islet cells (NOD mice [2]; 14 days of age, p<0.05): greater proportion
- number of apoptotic cells in islets (NOD mice [2]; NOD female mice, 14 days of age, vs control animals): reduced nearly in half; also recorded: less apoptotic cells
- survival (NOD mice [2]; female and male NOD mice, Log Rank and Wilcoxon tests): improved survival
- reduction of insulitis (NOD mice [2]; insulitis appearing at 8 weeks, 2.5% taurine in drinking water during gestation): 90%
- insulin/glucagon ratio (NOD mice [2]; small islets, NOD female mice): No difference
- percentage of PCNA positive cells (cell proliferation) (NOD mice [2]; small islets, NOD female mice): significant increase
- percentage of area stained for glucagon (alpha cells) (NOD mice [2]; small islets, NOD female mice): significantly increased
- percentage of area stained for insulin (β mass) (NOD mice [2]; small islets, NOD female mice): significant increase
- age by which 50% of mice became diabetic (NOD mice [2]; taurine treatment n=51, controls 16 weeks, p<0.001): 26 weeks
- reduction of SNP-induced apoptosis (fetal islet β cells; 0.3 mmol/l taurine, SNP 100 μmol/l, LP islets): 60%
- reduction of SNP-induced apoptosis (fetal islet β cells; 0.3 mmol/l taurine, SNP 100 μmol/l, control islets): 30%
- in vitro apoptotic rate (fetal islet β cells; control diet (C) islets, 0.3 mmol/l taurine): 1.5±0.2%
- in vitro apoptotic rate (fetal islet β cells; control diet (C) islets, 3 mmol/l taurine): 1.4±0.3%
- in vitro apoptotic rate (fetal islet β cells; low protein diet (LP) islets, 0.3 mmol/l taurine): 2.1±0.3%
- in vitro apoptotic rate (fetal islet β cells; low protein diet (LP) islets, 3 mmol/l taurine): 2.1±0.4%
- percentage of β cells positive for apoptosis (fetal islet β cells; taurine 0.3 or 3 mmol/l, SNP 100 μmol/l, both diet groups): significantly decreased
- increased apoptotic response of LP fetal islets to SNP or IL1β (fetal islets; co-incubation with taurine in vitro (0.3 or 3.0 mmol/l)): reversed
- SNP-induced and IL 1β-induced apoptosis in fetal islets (fetal islets; dietary taurine in low protein diet combined with high local taurine in vitro): synergistically decrease
- increased apoptotic response of LP fetal islets to SNP or IL1β (fetal islets; maternal supplementation with taurine in vivo): reversed
